Reference: PubChem BioAssay (NCI)
Where “and” joins values, the source holds several entries; their conditions need not be identical. Equal values may be shown once.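 Grown in 96-well plates, cells were treated for 48 hours with each compound at five concentrations. Insufficient inhibition: endpoint recorded as highest concentration tested. At the GI50, growth is halved. Definition used: TGI = concentration required for complete inhibition of growth.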

What was measured:
Experiment in all cases: NCI anticancer screen, dose series, 48 h
U251 CNS = test system: U251 CNS
NCI-H522 lung = test system: NCI-H522 lung
OVCAR-5 ovarian = test system: OVCAR-5 ovarian
KM12 colon = test system: KM12 colon
HOP-92 NSCLC = test system: HOP-92 NSCLC
COLO 205 colon = test system: COLO 205 colon
SN12C renal = test system: SN12C renal
HS 578T breast = test system: HS 578T breast
UACC-257 melanoma = test system: UACC-257 melanoma
A498 renal = test system: A498 renal

Row | SMILES | GI50 (U251 CNS) | GI50 (NCI-H522 lung) | GI50 (OVCAR-5 ovarian) | TGI (OVCAR-5 ovarian) | GI50 (KM12 colon) | TGI (KM12 colon) | GI50 (HOP-92 NSCLC) | TGI (HOP-92 NSCLC) | GI50 (COLO 205 colon) | TGI (COLO 205 colon) | GI50 (SN12C renal) | GI50 (HS 578T breast) | GI50 (UACC-257 melanoma) | TGI (UACC-257 melanoma) | GI50 (A498 renal) | TGI (A498 renal) | TGI (U251 CNS) | TGI (SN12C renal) | TGI (HS 578T breast) | TGI (NCI-H522 lung)
1 | O=C(Nc1ccc([N+](=O)[O-])cc1Cl)c1cc(Cl)ccc1O | 0.0971 µM and 0.217 µM | 0.0764 µM and 0.171 µM | 0.249 µM and 0.373 µM | 50 µM and > 95.5 µM | 0.169 µM and 0.303 µM | 0.608 µM and 1.2 µM | 0.0194 µM and 0.0591 µM | 0.1 µM and 0.261 µM | 1.34 µM and 1.52 µM | 3.26 µM and 3.22 µM | 0.115 µM and 0.195 µM | 0.133 µM and 0.207 µM | 0.0846 µM and 0.185 µM | 0.267 µM and 0.603 µM | 0.0329 µM and 0.0832 µM | 0.171 µM and 0.353 µM | – | – | – | –
2 | O=C(COc1ccc(Cl)cc1Cl)NNc1ccc([N+](=O)[O-])cc1 | 20.1 µM | – | > 100 µM | > 100 µM | > 100 µM | > 100 µM | 12.1 µM | 31.7 µM | 95.7 µM | > 100 µM | 80 µM | 25.6 µM | 99.6 µM | > 100 µM | 21.6 µM | 53.8 µM | 43.6 µM | > 100 µM | 95.4 µM | –
3 | Nc1nc(N)c2c(n1)NC(c1ccc(Cl)cc1)C1CCc3ccccc3C1=N2 (configuration not stated) | 3.81 µM | 5.21 µM | 14.9 µM | 28.1 µM | 8.48 µM | 20.8 µM | 2.26 µM | 9.83 µM | 2.78 µM | 9.05 µM | 7.68 µM | 15 µM | 7.07 µM | 19.6 µM | 5.34 µM | 19 µM | 16.3 µM | 21.7 µM | 50.3 µM | 20.9 µM
4 | Nc1ncnc2c1ncn2Cc1ccc(CCl)cc1 | 21.9 µM | 24 µM | 18.8 µM | 35.2 µM | 13.6 µM | 37.2 µM | 19 µM | 51.6 µM | 14.2 µM | 31.4 µM | 21.2 µM | 25.9 µM | 17.9 µM | 34.8 µM | 12.6 µM | 31.9 µM | 40.6 µM | 35.6 µM | 58.1 µM | 51.9 µM
5 | c1ccc2c(c1)CCCc1nnc3nc4ccccc4n3c1-2 | 3.29 µM | 12.7 µM | 9.28 µM | > 100 µM | 5.37 µM | 27.6 µM | 9.53 µM | > 100 µM | 4.78 µM | > 100 µM | 8.15 µM | 20.5 µM | 5.27 µM | > 100 µM | 16.6 µM | > 100 µM | 24.1 µM | > 100 µM | > 100 µM | 33 µM
6 | COc1ccc2c(c1)C(=O)CC(C(N)=O)C2 (configuration not stated) | – | – | – | > 100 µM | – | > 100 µM | – | > 100 µM | – | > 100 µM | – | – | – | > 100 µM | – | – | > 100 µM | > 100 µM | > 100 µM | > 100 µM
7 | CCCCCCCN(CCCCCCC)C(=N)c1ccc(OC)c2ccccc12 | 1.39 µM | 1.25 µM | 1.29 µM | 2.88 µM | – | – | 0.603 µM | 2.02 µM | 1.01 µM | 2.35 µM | 1.24 µM | 1.56 µM | – | – | 0.419 µM | 1.8 µM | 2.81 µM | 2.76 µM | 3.53 µM | 2.73 µM
8 | C/C=C1/CN2CCC34c5ccccc5N5C(=O)C(C6CC78c9ccccc9N9C(=O)C=CC(C%10CC7N6C/C%10=C/C)C98)=CC(C1CC23)C54 (configuration not stated) | 4.66 µM | 8.97 µM | 19.3 µM | 19.9 µM and 34.6 µM | 2.94 µM | 36.8 µM and 12.2 µM | 0.466 µM | 13.6 µM and 6.71 µM | 8.74 µM | 12.4 µM and 26.6 µM | 11.9 µM | 16.6 µM | 2.93 µM | 12.2 µM and 9.24 µM | 10.7 µM | 16.6 µM and 23.7 µM | 12.1 µM and 17.3 µM | 14.5 µM and 26.8 µM | 20.9 µM and 73.2 µM | 11 µM and 27.2 µM
9 | Nc1[nH]c(=S)[nH]c(=O)c1N=Nc1c(Br)cc(S(N)(=O)=O)cc1Br | – | – | – | > 100 µM | – | > 100 µM | – | > 100 µM | – | > 100 µM | – | – | – | > 100 µM | – | > 100 µM | > 100 µM | > 100 µM | > 100 µM | > 100 µM
10 | Cn1cc(-c2[nH]c3cc(NC(=O)[C@H](N)C4CCCCC4)cc4c3c2C=NNC4=O)cn1 | 0.418 µM and 0.415 µM | 0.352 µM and 0.222 µM | 1.28 µM and 0.644 µM | 15.8 µM and > 10 µM | 1.66 µM and 0.95 µM | 12.7 µM and > 10 µM | 0.0783 µM and 0.2 µM | 0.821 µM and > 4.52 µM | 0.922 µM and 0.632 µM | 3.6 µM and > 6.26 µM | 0.56 µM and 0.55 µM | 0.185 µM and 0.247 µM | 4.16 µM and > 6.97 µM | 18.8 µM and > 10 µM | 0.0542 µM and 0.0975 µM | 0.352 µM and 0.579 µM | 12.9 µM and > 10 µM | 13.4 µM and > 10 µM | 2.59 µM and 1.81 µM | 1.96 µM and 2.77 µM
11 | CNC(=O)c1cc(Oc2ccc(NC(=O)Nc3ccc(Cl)c(C(F)(F)F)c3)cc2)ccn1 | 2.84 µM and 2.05 µM and 2.14 µM | 1.79 µM and 2.14 µM and 2.06 µM | 3.54 µM and 4.39 µM and 3.11 µM | > 10 µM and 19.9 µM and 15.7 µM | 2.42 µM and 1.86 µM and 1.8 µM | > 10 µM and 8.07 µM and 6.97 µM | 1.65 µM and 1.43 µM and 1.75 µM | 5.62 µM and 5.12 µM and 6.38 µM | 2.57 µM and 2.9 µM and 2.33 µM | 8.46 µM and 7.66 µM and 6.26 µM | 2.84 µM and 2.98 µM and 2.31 µM | 2.96 µM and 2.33 µM and 2.59 µM | 2.14 µM and 1.99 µM and 2.2 µM | 6.41 µM and 5.16 µM and 6.15 µM | 3.1 µM and 2.27 µM and 2.15 µM | 9.48 µM and 6.38 µM and 6.52 µM | > 10 µM and 5.82 µM and 5.94 µM | > 10 µM and 10.6 µM and 7.15 µM | > 10 µM and 8.47 µM and 16.4 µM | 5.79 µM and 5.64 µM and 6.29 µM
12 | CC1NCCC(CC(=O)O)C1CC(=O)O (configuration not stated) | – | – | – | > 100 µM | – | > 100 µM | – | > 100 µM | – | > 100 µM | – | – | – | > 100 µM | – | > 100 µM | > 100 µM | > 100 µM | > 100 µM | > 100 µM
13 | O=C(Nc1ccc(-c2cn3ccccc3n2)cc1)c1cc(Br)ccc1O | – | – | – | > 100 µM | – | > 100 µM | – | > 100 µM | – | > 100 µM | – | – | – | > 100 µM | – | > 100 µM | > 100 µM | > 100 µM | > 100 µM | > 100 µM
14 | COc1ccc(CC2OC3(CCCCC3)CC3CCCCN32)cc1 (configuration not stated) | – | – | – | > 100 µM | – | > 100 µM | – | > 100 µM | – | > 100 µM | – | – | – | > 100 µM | – | – | > 100 µM | > 100 µM | > 100 µM | > 100 µM
15 | Oc1ccc(Cl)cc1N=Nc1c(O)ccc2ccccc12 | – | – | – | > 100 µM | – | > 100 µM | – | > 100 µM | – | > 100 µM | – | – | – | > 100 µM | – | – | > 100 µM | > 100 µM | > 100 µM | > 100 µM
